Assay results as given in patent US20080009418A1, “Selective Inhibitors” (Alchemia LTD., priority 2004, published 2008).

Experiments:
Conditions in all cases: compound at 10 μM
[1] = target: T1, Human κ-Opioid (KOP) (Homo sapiens, UniProt P41145); assay: Radioligand binding, human κ-opioid (KOP) membranes, filtration, [3H]-Diprenorphine
T1 construct: purchased Perkin Elmer Biosignal
Outline: (§1)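 Filtration binding on cloned human receptor membranes (1 Unit/well), [125I]-Substance P for NK1 and [3H]-Diprenorphine for KOP, 1 h at room temperature. Filters PEI-presoaked, washed with cold 50 mM Tris-HCl pH 7.4, counted by scintillation; percent inhibition calculated, reference ligand defining non-specific binding.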

[2] = target: T2, Human μ-opioid (MOP) (Homo sapiens, UniProt P35372); assay: Radioligand binding, human μ-opioid (MOP) membranes, FlashPlate, [3H]-Naloxone
T2 construct: purchased Perkin Elmer Biosignal
T2 sequence (P35372 whole entry): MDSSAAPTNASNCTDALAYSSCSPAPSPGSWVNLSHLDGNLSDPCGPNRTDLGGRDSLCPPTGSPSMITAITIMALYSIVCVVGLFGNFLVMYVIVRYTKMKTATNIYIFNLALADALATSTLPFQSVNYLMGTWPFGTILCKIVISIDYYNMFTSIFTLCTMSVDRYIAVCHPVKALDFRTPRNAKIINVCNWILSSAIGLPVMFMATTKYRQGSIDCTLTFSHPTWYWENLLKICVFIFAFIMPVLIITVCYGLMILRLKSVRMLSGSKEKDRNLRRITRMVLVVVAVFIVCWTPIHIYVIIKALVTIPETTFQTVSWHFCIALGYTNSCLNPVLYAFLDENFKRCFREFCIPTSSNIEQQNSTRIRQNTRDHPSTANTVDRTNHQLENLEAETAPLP
Outline: (§2)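 Cloned human receptor membranes were coated onto FlashPlate wells and incubated with radioligand and compound (added from a 0.5 mM DMSO daughter plate) for 1 hour at room temperature in the dark. Scintillation counting gave percent inhibition, with DMSO defining total and reference ligand defining non-specific binding.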

[3] = target: T3, Human opioid (ORL1) (Homo sapiens, UniProt P41146); assay: Radioligand binding, human opioid ORL1 membranes, FlashPlate, [125I]-Nociceptin
T3 construct: purchased Perkin Elmer Biosignal
T3 sequence (P41146 whole entry): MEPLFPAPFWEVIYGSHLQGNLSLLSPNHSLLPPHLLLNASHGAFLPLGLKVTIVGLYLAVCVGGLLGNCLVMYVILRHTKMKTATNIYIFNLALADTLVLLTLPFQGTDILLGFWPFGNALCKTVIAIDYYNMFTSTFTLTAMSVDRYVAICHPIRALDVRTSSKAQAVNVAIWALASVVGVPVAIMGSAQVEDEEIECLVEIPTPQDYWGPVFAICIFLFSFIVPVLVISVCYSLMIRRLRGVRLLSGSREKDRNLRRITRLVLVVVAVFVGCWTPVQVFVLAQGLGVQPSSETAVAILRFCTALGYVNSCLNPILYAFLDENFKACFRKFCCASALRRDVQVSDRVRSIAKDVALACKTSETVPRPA
Outline: as §2

[4] = target: T4, Human melanocortin (MC5) (Homo sapiens, UniProt P33032); assay: Radioligand binding, human melanocortin MC5 membranes, FlashPlate, [125I]-NDP-αMSH
T4 construct: purchased Perkin Elmer Biosignal
T4 sequence (P33032 whole entry): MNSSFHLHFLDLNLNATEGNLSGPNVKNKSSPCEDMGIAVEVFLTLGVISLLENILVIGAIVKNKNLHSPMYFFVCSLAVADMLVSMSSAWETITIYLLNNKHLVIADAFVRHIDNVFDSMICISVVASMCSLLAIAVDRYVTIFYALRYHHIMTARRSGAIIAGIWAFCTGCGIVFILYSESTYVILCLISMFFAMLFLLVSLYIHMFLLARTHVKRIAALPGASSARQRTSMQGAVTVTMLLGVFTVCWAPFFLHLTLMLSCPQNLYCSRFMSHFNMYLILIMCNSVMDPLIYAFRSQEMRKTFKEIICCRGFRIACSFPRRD
Outline: as §2

[5] = target: T5, Human Melanocortin (MC4) (Homo sapiens, UniProt P32245); assay: Radioligand binding, human melanocortin MC4 membranes, FlashPlate, [125I]-NDP-αMSH
T5 construct: purchased Perkin Elmer Biosignal
T5 sequence (P32245 whole entry): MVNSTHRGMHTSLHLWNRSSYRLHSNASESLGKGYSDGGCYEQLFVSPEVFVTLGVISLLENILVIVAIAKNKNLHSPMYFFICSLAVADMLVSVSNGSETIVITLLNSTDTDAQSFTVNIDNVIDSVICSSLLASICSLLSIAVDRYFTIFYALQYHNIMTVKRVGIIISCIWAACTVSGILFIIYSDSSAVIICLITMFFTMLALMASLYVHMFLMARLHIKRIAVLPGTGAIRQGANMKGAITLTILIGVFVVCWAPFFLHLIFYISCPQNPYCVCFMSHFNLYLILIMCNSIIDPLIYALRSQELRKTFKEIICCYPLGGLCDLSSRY
Outline: as §2

[6] = target: T6, Human neuropeptide Y (NPY-Y1) (Homo sapiens, UniProt P25929); assay: Radioligand binding, human neuropeptide Y NPY-Y1 membranes, FlashPlate, [125I]-PYY
T6 construct: purchased Perkin Elmer Biosignal
T6 sequence (P25929 1-384): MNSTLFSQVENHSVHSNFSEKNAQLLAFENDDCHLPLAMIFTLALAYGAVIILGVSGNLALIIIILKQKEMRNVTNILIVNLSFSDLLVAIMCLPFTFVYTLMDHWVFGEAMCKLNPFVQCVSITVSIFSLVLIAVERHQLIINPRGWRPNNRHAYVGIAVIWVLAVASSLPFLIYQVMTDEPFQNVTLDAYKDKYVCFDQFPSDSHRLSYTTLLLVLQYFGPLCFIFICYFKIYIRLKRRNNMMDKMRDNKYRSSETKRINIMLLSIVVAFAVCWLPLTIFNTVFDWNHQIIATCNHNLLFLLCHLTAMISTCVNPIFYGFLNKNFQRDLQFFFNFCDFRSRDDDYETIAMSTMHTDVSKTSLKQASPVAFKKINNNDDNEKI
Outline: as §2

[7] = target: T7, Human Melanocortin (MC3) (Homo sapiens, UniProt P41968); assay: Radioligand binding, human melanocortin MC3 membranes, FlashPlate, [125I]-NDP-αMSH
T7 construct: purchased Perkin Elmer Biosignal
T7 sequence (P41968 whole entry): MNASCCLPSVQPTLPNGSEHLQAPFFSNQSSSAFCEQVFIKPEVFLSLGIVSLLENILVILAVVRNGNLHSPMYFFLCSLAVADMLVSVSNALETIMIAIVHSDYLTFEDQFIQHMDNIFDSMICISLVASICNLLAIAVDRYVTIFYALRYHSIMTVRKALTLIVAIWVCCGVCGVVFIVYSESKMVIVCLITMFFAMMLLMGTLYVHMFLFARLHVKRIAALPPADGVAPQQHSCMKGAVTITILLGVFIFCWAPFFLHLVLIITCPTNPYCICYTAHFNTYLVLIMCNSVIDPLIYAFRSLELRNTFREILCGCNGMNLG
Outline: as §2

[8] = target: T8, Human δ-opioid (DOP) (Homo sapiens, UniProt P41143); assay: Radioligand binding, human δ-opioid (DOP) membranes, FlashPlate, [3H]-Bremazocine
T8 construct: purchased Perkin Elmer Biosignal
T8 sequence (P41143 whole entry): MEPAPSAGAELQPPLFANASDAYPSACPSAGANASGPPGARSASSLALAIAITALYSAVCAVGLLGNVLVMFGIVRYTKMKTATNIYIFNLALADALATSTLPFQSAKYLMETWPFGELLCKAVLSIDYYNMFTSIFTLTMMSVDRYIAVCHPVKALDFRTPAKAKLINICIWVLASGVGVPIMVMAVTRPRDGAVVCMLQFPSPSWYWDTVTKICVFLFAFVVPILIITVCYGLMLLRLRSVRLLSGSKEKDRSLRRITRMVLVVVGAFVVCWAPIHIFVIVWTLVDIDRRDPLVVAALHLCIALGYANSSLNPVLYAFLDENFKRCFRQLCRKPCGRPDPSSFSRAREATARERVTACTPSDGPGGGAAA
Outline: as §2

[9] = target: T9, Human neurokinin (NK1) (Homo sapiens, UniProt P25103); assay: Radioligand binding, human neurokinin NK1 membranes, filtration, [125I]-Substance P
T9 construct: purchased Perkin Elmer Biosignal
T9 sequence (P25103 whole entry): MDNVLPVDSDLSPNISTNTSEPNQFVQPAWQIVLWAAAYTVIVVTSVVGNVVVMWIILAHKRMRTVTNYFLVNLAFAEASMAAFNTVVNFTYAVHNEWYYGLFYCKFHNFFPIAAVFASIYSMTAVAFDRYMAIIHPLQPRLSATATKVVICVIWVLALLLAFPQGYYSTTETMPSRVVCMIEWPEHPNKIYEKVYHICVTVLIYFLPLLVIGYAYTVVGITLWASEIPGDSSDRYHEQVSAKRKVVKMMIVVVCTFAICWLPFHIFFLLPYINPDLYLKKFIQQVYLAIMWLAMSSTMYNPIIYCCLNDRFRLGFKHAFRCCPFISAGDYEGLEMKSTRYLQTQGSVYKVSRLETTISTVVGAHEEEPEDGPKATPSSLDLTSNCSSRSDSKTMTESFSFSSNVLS
Outline: as §1

[10] = target: T10, Mouse urotensin (mUR2) (Mus musculus, UniProt Q8VIH9); assay: Radioligand binding, mouse urotensin mUR2 membranes, FlashPlate, [125I]-Urotensin II
T10 construct: purchased Perkin Elmer Biosignal
T10 sequence (Q8VIH9 1-385): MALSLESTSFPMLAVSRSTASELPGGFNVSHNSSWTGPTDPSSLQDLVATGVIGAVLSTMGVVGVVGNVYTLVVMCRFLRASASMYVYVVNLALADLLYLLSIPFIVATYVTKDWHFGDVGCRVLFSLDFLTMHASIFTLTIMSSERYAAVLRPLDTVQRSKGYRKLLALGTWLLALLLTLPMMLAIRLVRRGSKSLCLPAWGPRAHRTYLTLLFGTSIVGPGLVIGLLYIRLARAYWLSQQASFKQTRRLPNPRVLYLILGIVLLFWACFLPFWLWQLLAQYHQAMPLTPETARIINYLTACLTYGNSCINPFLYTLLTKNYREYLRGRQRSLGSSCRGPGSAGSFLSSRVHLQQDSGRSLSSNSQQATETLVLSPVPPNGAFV
Outline: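 Cloned mouse urotensin (mUR2) receptor membranes from Perkin Elmer Biosignal were immobilized in FlashPlate microplates using a proprietary coating. Each well got 19.5 μl buffer, then 0.5 μl of DMSO, reference ligand, or compound. Adding 5 μl of [125I]-Urotensin II, diluted to 5× final concentration in binding buffer, started binding. Plates were sealed with TopSeal-A and incubated 1 hour at room temperature in the dark. Wells were counted for 30 seconds each on a TopCount after a 60-second delay, and percentage inhibition was calculated.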

[11] = target: T11, Human melanin-concentrating hormone (MCH1) (Homo sapiens, UniProt Q99705); assay: Radioligand binding, human melanin-concentrating hormone MCH1 membranes, FlashPlate, [125I]-S36057
T11 construct: purchased Perkin Elmer Biosignal
T11 sequence (Q99705 whole entry): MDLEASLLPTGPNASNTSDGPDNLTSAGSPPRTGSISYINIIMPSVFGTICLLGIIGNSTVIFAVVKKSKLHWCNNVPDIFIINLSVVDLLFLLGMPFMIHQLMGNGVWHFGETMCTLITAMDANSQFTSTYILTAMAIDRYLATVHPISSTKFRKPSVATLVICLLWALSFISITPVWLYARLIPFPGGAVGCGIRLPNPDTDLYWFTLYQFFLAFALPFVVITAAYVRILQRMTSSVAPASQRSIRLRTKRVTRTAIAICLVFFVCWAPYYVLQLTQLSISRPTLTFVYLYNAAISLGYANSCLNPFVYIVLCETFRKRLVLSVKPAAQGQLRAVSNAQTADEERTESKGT
Outline: as §2

T1 sequence (P41145 whole entry): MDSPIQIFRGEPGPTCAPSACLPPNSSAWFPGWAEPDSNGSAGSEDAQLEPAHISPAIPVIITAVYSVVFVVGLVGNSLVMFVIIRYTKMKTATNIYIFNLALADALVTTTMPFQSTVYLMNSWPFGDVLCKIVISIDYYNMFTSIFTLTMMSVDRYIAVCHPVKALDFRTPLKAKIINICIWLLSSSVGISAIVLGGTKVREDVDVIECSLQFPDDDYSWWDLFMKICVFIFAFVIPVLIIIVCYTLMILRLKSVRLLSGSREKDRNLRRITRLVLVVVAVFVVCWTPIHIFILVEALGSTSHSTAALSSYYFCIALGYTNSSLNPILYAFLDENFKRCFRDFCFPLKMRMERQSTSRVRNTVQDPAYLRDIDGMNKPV

Structure (SMILES): COCC1OC(NC(=O)Cc2ccccc2)C(NC(=O)CCCN)C(OCc2ccc3ccccc3c2)C1O (stereo not shown) [compound 543]
- A2: inhibition of radioligand binding, human κ-opioid (KOP) ([1]; [3H]-Diprenorphine): − (“−” indicates less than 50% inhibition at 10 μM)
- A7: inhibition of radioligand binding, human μ-opioid (MOP) ([2]; [3H]-Naloxone): − (“−” indicates less than 50% inhibition at 10 μM)
- A10: inhibition of radioligand binding, human opioid (ORL1) ([3]; [125I]-Nociceptin): − (“−” indicates less than 50% inhibition at 10 μM)
- A5: inhibition of radioligand binding, human melanocortin (MC5) ([4]; [125I]-NDP-αMSH): − (“−” indicates less than 50% inhibition at 10 μM)
- A4: inhibition of radioligand binding, human melanocortin (MC4) ([5]; [125I]-NDP-αMSH): − (“−” indicates less than 50% inhibition at 10 μM)
- A9: inhibition of radioligand binding, human neuropeptide Y (NPY-Y1) ([6]; [125I]-PYY): − (“−” indicates less than 50% inhibition at 10 μM)
- A3: inhibition of radioligand binding, human melanocortin (MC3) ([7]; [125I]-NDP-αMSH): − (“−” indicates less than 50% inhibition at 10 μM)
- A1: inhibition of radioligand binding, human δ-opioid (DOP) ([8]; [3H]-Bremazocine): − (“−” indicates less than 50% inhibition at 10 μM)
- A8: inhibition of radioligand binding, human neurokinin (NK1) ([9]; [125I]-Substance P): + (“+” indicates greater than 50% inhibition at 10 μM)
- A11: inhibition of radioligand binding, mouse urotensin (mUR2) ([10]; [125I]-Urotensin II): − (“−” indicates less than 50% inhibition at 10 μM)
- A6: inhibition of radioligand binding, human melanin-concentrating hormone (MCH1) ([11]; [125I]-S36057): − (“−” indicates less than 50% inhibition at 10 μM)

Structure (SMILES): NCCCC(=O)NC1C(OCc2ccc3ccccc3c2)OC(COCc2ccccc2)C(O)C1OCc1ccc(Cl)cc1 (single isomer, unassigned) [compound 457]
- A2: inhibition of radioligand binding ([1]; [3H]-Diprenorphine, human KOP membranes): − (“−” indicates less than 50% inhibition at 10 μM)
- A7: inhibition of radioligand binding ([2]; [3H]-Naloxone, human MOP membranes, 10 µM): + (“+” indicates greater than 50% inhibition at 10 μM)
- A10: inhibition of radioligand binding ([3]; [125I]-Nociceptin, human ORL1 membranes, 10 µM): + (“+” indicates greater than 50% inhibition at 10 μM)
- A5: inhibition of radioligand binding ([4]; [125I]-NDP-αMSH, human MC5 membranes, 10 µM): − (“−” indicates less than 50% inhibition at 10 μM)
- A4: inhibition of radioligand binding ([5]; [125I]-NDP-αMSH, human MC4 membranes, 10 µM): − (“−” indicates less than 50% inhibition at 10 μM)
- A9: inhibition of radioligand binding ([6]; [125I]-PYY, human NPY-Y1 membranes): − (“−” indicates less than 50% inhibition at 10 μM)
- A3: inhibition of radioligand binding ([7]; [125I]-NDP-αMSH, human MC3 membranes): − (“−” indicates less than 50% inhibition at 10 μM)
- A1: inhibition of radioligand binding ([8]; [3H]-Bremazocine, human DOP membranes): − (“−” indicates less than 50% inhibition at 10 μM)
- A8: inhibition of radioligand binding ([9]; [125I]-Substance P, human NK1 membranes): + (“+” indicates greater than 50% inhibition at 10 μM)
- A11: inhibition of radioligand binding ([10]; [125I]-Urotensin II, mouse mUR2 membranes): − (“−” indicates less than 50% inhibition at 10 μM)
- A6: inhibition of radioligand binding ([11]; [125I]-S36057, human MCH1 membranes, 10 µM): − (“−” indicates less than 50% inhibition at 10 μM)

Structure (SMILES): COC[C@H]1OC(OCc2ccc3ccccc3c2)[C@H](NC(=O)CCNC(=N)N)[C@@H](OCc2ccccc2)[C@@H]1O (stereo partly shown) [compound 19]
- A2 radioligand binding inhibition ([1]; human κ-opioid (KOP) membranes): − (“−” indicates less than 50% inhibition at 10 μM)
- A7 radioligand binding inhibition ([2]; human μ-opioid (MOP) membranes): + (“+” indicates greater than 50% inhibition at 10 μM)
- A10 radioligand binding inhibition ([3]; human ORL1 membranes): − (“−” indicates less than 50% inhibition at 10 μM)
- A5 radioligand binding inhibition ([4]; human melanocortin MC5 membranes): − (“−” indicates less than 50% inhibition at 10 μM)
- A4 radioligand binding inhibition ([5]; human melanocortin MC4 membranes): − (“−” indicates less than 50% inhibition at 10 μM)
- A9 radioligand binding inhibition ([6]; human NPY-Y1 membranes): − (“−” indicates less than 50% inhibition at 10 μM)
- A3 radioligand binding inhibition ([7]; human melanocortin MC3 membranes): − (“−” indicates less than 50% inhibition at 10 μM)
- A1 radioligand binding inhibition ([8]; human δ-opioid (DOP) membranes): − (“−” indicates less than 50% inhibition at 10 μM)
- A8 radioligand binding inhibition ([9]; human neurokinin NK1 membranes): + (“+” indicates greater than 50% inhibition at 10 μM)
- A11 radioligand binding inhibition ([10]; mouse urotensin mUR2 membranes): − (“−” indicates less than 50% inhibition at 10 μM)
- A6 radioligand binding inhibition ([11]; human MCH1 membranes): − (“−” indicates less than 50% inhibition at 10 μM)

Structure (SMILES): CSC1OC(COCc2ccccc2)C(O)C(OCc2ccc(Cl)cc2)C1NC(=O)CCCNC(=N)N (stereo not shown) [compound 268]
- A2: inhibition of radioligand binding ([1]; [3H]-Diprenorphine, filtration): − (“−” indicates less than 50% inhibition at 10 μM)
- A7: inhibition of radioligand binding ([2]; [3H]-Naloxone, FlashPlate): − (“−” indicates less than 50% inhibition at 10 μM)
- A10: inhibition of radioligand binding ([3]; [125I]-Nociceptin, FlashPlate): − (“−” indicates less than 50% inhibition at 10 μM)
- A5: inhibition of radioligand binding ([4]; [125I]-NDP-αMSH, FlashPlate): + (“+” indicates greater than 50% inhibition at 10 μM)
- A4: inhibition of radioligand binding ([5]; [125I]-NDP-αMSH, FlashPlate): − (“−” indicates less than 50% inhibition at 10 μM)
- A9: inhibition of radioligand binding ([6]; [125I]-PYY, FlashPlate): − (“−” indicates less than 50% inhibition at 10 μM)
- A3: inhibition of radioligand binding ([7]; [125I]-NDP-αMSH, FlashPlate): − (“−” indicates less than 50% inhibition at 10 μM)
- A1: inhibition of radioligand binding ([8]; [3H]-Bremazocine, FlashPlate): − (“−” indicates less than 50% inhibition at 10 μM)
- A8: inhibition of radioligand binding ([9]; [125I]-Substance P, filtration): + (“+” indicates greater than 50% inhibition at 10 μM)
- A11: inhibition of radioligand binding ([10]; [125I]-Urotensin II, FlashPlate): − (“−” indicates less than 50% inhibition at 10 μM)
- A6: inhibition of radioligand binding ([11]; [125I]-S36057, FlashPlate): − (“−” indicates less than 50% inhibition at 10 μM)

Structure (SMILES): [N-]=[N+]=N[C@H]1C(OCCNC(=N)N)O[C@H](COCc2ccc3ccccc3c2)[C@@H](O)[C@@H]1OCc1ccccc1 (stereo partly shown) [compound 126]
- A2 radioligand binding, percentage inhibition ([1]; [3H]-Diprenorphine): − (“−” indicates less than 50% inhibition at 10 μM)
- A7 radioligand binding, percentage inhibition ([2]; [3H]-Naloxone): − (“−” indicates less than 50% inhibition at 10 μM)
- A10 radioligand binding, percentage inhibition ([3]; [125I]-Nociceptin): − (“−” indicates less than 50% inhibition at 10 μM)
- A5 radioligand binding, percentage inhibition ([4]; [125I]-NDP-αMSH): + (“+” indicates greater than 50% inhibition at 10 μM)
- A4 radioligand binding, percentage inhibition ([5]; [125I]-NDP-αMSH): + (“+” indicates greater than 50% inhibition at 10 μM)
- A9 radioligand binding, percentage inhibition ([6]; [125I]-PYY): − (“−” indicates less than 50% inhibition at 10 μM)
- A3 radioligand binding, percentage inhibition ([7]; [125I]-NDP-αMSH): − (“−” indicates less than 50% inhibition at 10 μM)
- A1 radioligand binding, percentage inhibition ([8]; [3H]-Bremazocine): − (“−” indicates less than 50% inhibition at 10 μM)
- A8 radioligand binding, percentage inhibition ([9]; [125I]-Substance P): + (“+” indicates greater than 50% inhibition at 10 μM)
- A11 radioligand binding, percentage inhibition ([10]; [125I]-Urotensin II): − (“−” indicates less than 50% inhibition at 10 μM)
- A6 radioligand binding, percentage inhibition ([11]; [125I]-S36057): + (“+” indicates greater than 50% inhibition at 10 μM)
